According to EP0409410B1, “Indenoindole compounds” (UNIVERSITY OF BATH, priority 1989, dated 1991):

Tests used:
[1] = tested on: ascorbate/Fe²⁺-dependent lipid peroxidation; test: Ascorbate/Fe²⁺-dependent lipid peroxidation (2-thiobarbituric acid-reactive material); type: biochemical; conditions: concentration required to inhibit lipid peroxidation by 50%; 200 µg/ml soy bean phospholipid, 10 µM iron, 100 µM ascorbic acid, 0.1 M KPi pH 7.4, room temperature, 30 min
Description: (§1) The most remarkable feature of the compounds of the invention is their efficacy as free-radical scavengers or antioxidants. An assay system measuring the concentration of the compounds of formulas (IA) and (IB) required to inhibit lipid peroxidation by 50% (IC₅₀) was used. Other assays described below are the red blood cell fragility test used for measuring membrane stabilisation by indenoindoles (Table 2), and protection by indenoindoles against cytotoxicity of N-methyl-N¹-nitro-N-nitrosoguanidine (MNNG) in rat hepatocytes (Table 3). MNNG is a highly cytotoxic agent, the mechanism of action of which may involve a radical-mediated membrane destabilization.
For the ferrous/ascorbate lipid peroxidation system, 6.25 ml of 0.1 M potassium phosphate buffer (KPi), pH 7.4, was added to 12.5 mg dried soy bean phospholipids. After flushing with argon for 2 min, the suspension was sealed with five layers of Parafilm and sonicated until the suspension was translucent. The final reaction mixture was composed of 200 µg/ml phospholipid, 10 µM FeNH₄ (SO₄)₂ or Fe(NH₄)₂(SO₄)₂, and 100 µM ascorbic acid in 0.1 M KPi (pH 7.4), and the antioxidant to be tested in acetone or DMSO. The volume of vehicle never exceeded 1% of the total volume. The reaction was initiated by the addition of ascorbic acid plus iron. The reaction was continued at room temperature in a shaking water bath for 30 min and then stopped by the addition of […] of 0.5 M butylated hydroxytoluene in DMSO. The above procedure and the subsequent determination of 2-thiobarbituric acid-reactive material is described in: Shertzer, H.G. et al, Biochem. Pharmacol. 37, 333 (1988). […]

[2] = tested on: red blood cells; test: Red blood cell fragility test (membrane stabilization, protection from osmolysis); type: cell-based, Rats; conditions: red blood cell fragility protective index value: linear regression slope, percentage protection against osmolysis per µM protecting agent; rat blood, absorbance at 656 nm
Description: as §1
The membrane stabilization effect of indenoindoles was assayed by the red blood cell fragility test. Rats were anesthesized With 65 mg pentobarbital per kg body weight by i.p. injection. Blood samples were removed into a heparinized syringe from the left ventricle and diluted 20-fold with buffer containing 140 mM NaCl, 10 mM sodium citrate and 5 mM glucose (pH 7.4) at 0°C. Diluted blood was kept on ice. A 0.75 ml aliquot of blood was added to a 4 ml cuvette containing 10 µl DMSO or 10 µl of the antioxidant dissolved in DMSO vehicle. After 1 min of gentle swirling, 0.75 ml of 0.9 % NaCl or H₂O were added to the cuvette by forceful pipetting, and the absorbance at 656 nm was recorded with a Beckman DU-70 spectrophotometer. When H₂O was added in the absence of a stabilizing agent, absorbance decreased wtihin 15 sec to 0.8. Addition of NaCl instead of H₂O gave a time-independent absorbance of 2.2. In the presence of increasing concentrations of stabilizing chemicals, the absorbance decrease observed after the addition of water was diminished. The % protection from osmolysis was obtained from the equation [E(2.2- 0.8) - A/2.2-0.8)] x 100% [formula] , where A=2.2 minus the absor bance decrease when water is added in the presence of a known concentration of chemical. The % protection is then plotted against several concentrations of the chemical being treated. The red blood cell fragility protective index value (RBC-PIV) is the linear regression slope of this plot, expressed as the percentage protection against osmolysis per µM protecting agent. […]

[3] = tested on: rat hepatocytes; test: Protection against cytotoxic effects of MNNG in hepatocytes (trypan blue exclusion); type: cell-based, male Sprague-Dawley rats; conditions: Hepatocyte, concentration of compound required to extend by 1 hour the time needed for MNNG (0.5 mM) to kill 50 % of the viable cells, read-out: IC₅₀
Description: as §1
The protective effects of indenoindoles on MNNG-induced cytotoxicity was assayed with rat hepatocytes. Hepatocytes were prepared from male Sprague-Dawley rats by collagenase treatment as originally described by Zahlten and Stratman (Zahlten, R.N. and Stratman, F.W., Arch. Biochem. Biophys. 163, 600 (1988)), as modified by Reitman et al (Reitman, F.A., Shertzer, H.G. and Berger, M.L., Biochem. Pharmacol. 37,3183 (1988)). In order to improve viability, cells were centrifuged through 0.508 g/ml Percoll (Pharmacia AB, Uppsala, Sweden) in 137 mM NaCl, 8.1 mM Na₂HPO₄ and 1.5 mM KH₂PO₄ (pH 7.4). Putative protecting agents were added to the cells as solutions in DMSO, with the final concentration of DMSO never exceeding 5 µl/ml of cell suspension. MNNG was added to a concentration of 0.5 mM as a solution in ethanol, giving a final concentration of ethanol of 1%; ethanol alone was by itself without effect. Viability was determined as the percentage of cells that excluded 0.2 % trypan blue. Values are the concentration of compound required to extend by 1 hour the time needed for MNNG to kill 50 % of the viable cells.

Row | SMILES | pIC₅₀ [1] | RBC-PIV [2] [%/µM] | IC50 [3] [nM]
1 | CC(C)c1ccc2c(c1)[C@H]1Cc3ccccc3[C@@]1(C)N2 (relative stereo) [8-Isopropyl-4b-methyl-THII, cis-4b,5,9b,10-Tetrahydro-4b-methyl-8-isopropylindeno-[1,2-b]indole] | 7.7 | – | –
2 | CC1(C)c2ccccc2[C@H]2Nc3ccccc3[C@H]21 (relative stereo) [10,10-Dimethyl-THII, cis-4b,5,9b,10-Tetrahydro-10,10-dimethylindeno [1,2-b] indole] | 6.9 | – | –
3 | CC12Cc3ccccc3C1Nc1ccccc12 (stereo not drawn) [9b-Methyl-THII, cis-4b,5,9b,10-Tetrahydro-9b-methylindeno [1.2-b]-indole] | 7.0 | – | –
4 | COc1cc(C)c2c(c1)[C@H]1Cc3ccccc3[C@H]1N2 (relative stereo) [8-Methoxy-6-methyl-THII, cis-4b,5,9b,10-Tetrahydro-8-methoxy 6-methylindeno[1,2-b]indole] | 8.0 | – | –
5 | Cc1c(C)c2c(c(C)c1O)CCC(C)(CCCC(C)CCCC(C)CCCC(C)C)O2 (stereo not drawn) [α-Tocopherol (Vitamin E), α-Tocopherol, reference compound] | 5.0 | 0.10 | –
6 | CC(C)c1ccc2c(c1)[C@@H]1c3ccccc3C[C@@H]1N2 (relative stereo) [9-Isopropyl-iso-THII, cis-5,5a,6,10b-Tetrahydro-9-isopropylindeno[2,1-b]indole] | 7.4 | – | –
7 | CC(C)c1ccc2c(c1)[C@@]1(C)Cc3ccccc3[C@@]1(C)N2 (relative stereo) [8-Isopropyl-4b,9b-dimethyl, cis-4b,5,9b,10-Tetrahydro-4b,9b-dimethyl-8-isopropylindeno[1,2-b]indole] | 7.7 | – | –
8 | CC(C)c1ccc2c(c1)[C@H]1Cc3ccccc3[C@H]1N2 (relative stereo) [8-Isopropyl-THII, cis-4b,5,9b,10-Tetrahydro-8-iso-propylindeno[1,2-b]indole] | 7.3 | – | –
9 | CC12Cc3ccccc3C1(C)Nc1ccccc12 (stereo not drawn) [4b,9b-Dimethyl-THII, cis-4b,5,9b,10-Tetrahydro-4b,9b-dimethylindenol[1.2-b]indole] | 7.2 | – | –
10 | Cc1cc(C)c2c(c1)[C@H]1Cc3ccccc3[C@H]1N2 (relative stereo) [6,8-Dimethyl-THII, cis-4b,5,9b,10-Tetrahydro-6,8-dimethylindeno[1,2-b]indole] | 7.3 | – | –
11 | COc1ccc2c(c1)[C@H]1Cc3ccccc3[C@H]1N2 (relative stereo) [8-Methoxy-THII, cis-4b,5,9b,10-Tetrahydro-8-methoxyindeno[1,2-b]indole] | – | 0.21 | –
12 | COc1ccc2c(c1)[C@@H]1c3ccccc3C[C@@H]1N2 (relative stereo) [9-Methoxy-iso-THII, cis-5,5a,6,10b-Tetrahydro-9-methoxyindeno[2,1-b]indole] | 7.7 | – | –
13 | Cc1ccc2c(c1)[C@@]1(C)Cc3ccccc3[C@@]1(C)N2C (relative stereo) [4b,5,8,9b-Tetramethyl-THII, cis-4b,5,9b,10-tetrahydro-4b,5,8,9b-tetramethylindeno[1,2-b]indole] | 6.8 | – | –
14 | CC12Nc3ccccc3C1Cc1ccccc12 (stereo not drawn) [4b-Methyl-THII, cis-4b,5,9b,10-Tetrahydro-4b-methylindeno[1,2-b]inole] | 7.1 | – | –
15 | c1ccc2c(c1)C[C@H]1Nc3ccccc3[C@@H]21 (relative stereo) [iso-THII, cis-5,5a,6,10b-Tetrahydroindeno[2,1-b]indole] | 6.9 | 0.38 | 2000
16 | CCN(CC)c1ccc2c(c1)C[C@@H]1c3ccccc3N[C@H]21 (relative stereo) [2-Diethylamino-THII, cis-4b,5,9b,10-Tetrahydro-2-(N,N-Diethylamino)-indeno[1,2-b]indole] | 7.2 | – | –
17 | Cc1ccc2c(c1)[C@@]1(C)Cc3ccccc3[C@@]1(C)N2 (relative stereo) [4b,8,9b-Trimethyl-THII, cis 4b,5,9b,10-Tetrahydro-4b,8,9b-trimethylindeno[1,2-b]indole] | 7.6 | – | –
18 | COc1ccc2c(c1)[C@H]1Cc3c(cc(C)c(OC)c3C)[C@H]1N2 (relative stereo) [2,8-Dimethoxy-1,3,dimethyl-THII, cis-4b,5,9b,10-Tetrahydro-2,8-dimethoxy-1,3-dimethylindeno[1,2-b]indole] | 8.1 | – | –
19 | CC(=O)Oc1c(C)c(C)c2c(c1C)CCC(C)(CCCC(C)CCCC(C)CCCC(C)C)O2 (stereo not drawn) [α-Tocopheryl-acetate, reference compound] | – | – | 161000
20 | Cc1ccc2c(c1)[C@H]1Cc3ccccc3[C@H]1N2 (relative stereo) [8-Methyl-THII, cis-4b,5,9b,10-Tetrahydro-8 methylindeno[1,2-b]indole] | 7.1 | – | –
21 | Cc1cc2c(c(C)c1O)C[C@@H]1c3ccccc3N[C@H]21 (relative stereo) [2-Hydroxy-1,3-dimethyl-THII, cis-4b,5,9b,10-Tetrahydro-2-hydroxy-1,3-dimethylindeno[1,2-b]indole] | 7.9 | – | –
22 | CN1c2ccccc2[C@H]2c3ccccc3C[C@H]21 [6-Methyl-iso-THII, cis-5,5a,6,10b-Tetrahydro-methylindeno[2.1-b]indole] | 6.1 | – | –
23 | COc1c(C)cc2c(c1C)C[C@@H]1c3ccccc3N[C@H]21 (relative stereo) [2-Methoxy-1,3-dimethyl-THII, cis-4b,5,9b,10-Tetrahydro-2-methoxy-1,3-dimethylindeno[1,2-b]indole] | 7.2 | – | –
24 | c1ccc2c(c1)C[C@@H]1c3ccccc3N[C@H]21 (relative stereo) [THII, cis-4b,5,9b,10-Tetrahydroindeno[1,2-b]indole] | 6.9 | 0.41 | 2200
25 | COc1ccc2c(c1)C1Cc3ccccc3C1N2C (stereo not drawn) [8-Methoxy-5-methyl-THII, cis-4b.5.9b,10-Tetrahydro-8-methoxy-5-methylindeno[1,2-b]indole] | 7.0 | – | –
26 | Cc1cc(C)c2c(c1)[C@@]1(C)Cc3ccccc3[C@@]1(C)N2 (relative stereo) [4b,6,8,9b-Tetramethyl-THII, cis-4b,5,9b,10-Tetrahydro-4b,6,8,9b-tetramethylindeno[1,2-b]indole] | 7.4 | – | –
27 | CCN(CC)c1ccc2c(c1)C1Cc3ccccc3C1N2CC (stereo not drawn) [8-Diethylamino-5-ethyl-THII, cis-4b,5,9b,10-Tetrahydro-5-ethyl-8-(N.N-diethylamino)-indeno[1,2-b]indole] | 7.1 | – | –
28 | CN1c2ccccc2[C@H]2Cc3ccccc3[C@H]21 (relative stereo) [5-Methyl-THII, cis-4b,5,9b,10-Tetrahydro-5-methylindeno[1,2-b]indole] | 6.1 | 0.64 | 2200
29 | Cc1ccc2c(c1)C1Cc3ccccc3C1N2C (stereo not drawn) [5,8-Dimethyl-THII, cis-4b,5,9b,10-Tetrahydro-5,8-dimethylindenol[1,2-b]indole] | 6.4 | – | –
30 | Fc1ccc2c(c1)[C@H]1Cc3ccccc3[C@H]1N2 (relative stereo) [8-Fluoro-THII, cis-4b,5,9b,10-Tetrahydro-8-fluoroindeno[1,2-b]indole] | 7.5 | – | –
